Results taken from EP4238971A1, “SUBSTITUTED ISOXAZOLINE DERIVATIVES” (BASF SE, priority 2022, dated 2023).

Assays:
Type in all cases: in vivo
Plutella xylostella = test: Diamond back moth (Plutella xylostella), cabbage leaf disc dip test; settings: for mortality in comparison with untreated controls: 300ppm, 3rd instar larvae, mortality recorded 72 hours after treatment
Procedure: B.5. Diamond back moth (Plutella xylostella)
The active compound was dissolved at the desired concentration in a mixture of 1:1 (vol:vol) distilled water: acetone. Surfactant (Kinetic) was added at a rate of 0.01% (vol/vol). The test solution was prepared at the day of use. Cabbage leaf discs (60mm in diameter) were dipped in test solution and air-dried. Treated leaves were placed in petri dishes lined with moistened filter paper and inoculated with ten 3rd instar larvae. Mortality was recorded 72 hours after treatment. Feeding damages were also recorded using a scale of 0-100%.

Bemisia argentifolii = test: Silverleaf whitefly (Bemisia argentifolii) adults, sprayed cotton plants; settings: for mortality in comparison with untreated controls: 300 ppm, adults, assessed 3 days after treatment
Procedure: B.8. Silverleaf whitefly (Bemisia argentifolii) (adults)
The active compounds were formulated by a Tecan liquid handler in 100% cyclohexanone as a 10,000-ppm solution supplied in tubes. The 10,000-ppm solution was serially diluted in 100% cyclohexanone to make interim solutions. These served as stock solutions for which final dilutions were made by the Tecan in 50% acetone:50% water (v/v) into 5 or 10ml glass vials. A nonionic surfactant (Kinetic®) was included in the solution at a volume of 0.01% (v/v). The vials were then inserted into an automated electrostatic sprayer equipped with an atomizing nozzle for application to plants/insects. Cotton plants at the cotyledon stage (one plant per pot) were sprayed by an automated electrostatic plant sprayer equipped with an atomizing spray nozzle. The plants were dried in the sprayer fume hood and then removed from the sprayer. Each pot was placed into a plastic cup and about 10 to 12 whitefly adults (approximately 3-5 days old) were introduced. The insects were collected using an aspirator and a nontoxic Tygon® tubing connected to a barrier pipette tip. The tip, containing the collected insects, was then gently inserted into the soil containing the treated plant, allowing insects to crawl out of the tip to reach the foliage for feeding. Cups were covered with a reusable screened lid. Test plants were maintained in a growth room at about 25°C and about 20-40% relative humidity for 3 days, avoiding direct exposure to fluorescent light (14:10 light:dark photoperiod) to prevent trapping of heat inside the cup. Mortality was assessed 3 days after treatment, compared to untreated control plants.

Dichromothrips corbetti = test: Orchid thrips (Dichromothrips corbetti), floral-immersion technique; settings: for mortality in comparison with untreated controls: 300ppm, adult thrips, mortality recorded 72 hours after treatment
Procedure: B.6. Orchid thrips (Dichromothrips corbetti)
Dichromothrips corbetti adults used for bioassay were obtained from a colony maintained continuously under laboratory conditions. For testing purposes, the test compound was diluted in a 1:1 mixture of acetone:water (vol:vol), plus Kinetic at a rate of 0.01% v/v.
Thrips potency of each compound was evaluated by using a floral-immersion technique. Each orchid petal was dipped into treatment solution and allowed to dry in Petri dishes. Treated petals were placed into individual re-sealable plastic along with about 20 adult thrips. All test arenas were held under dark condition and a temperature of about 28°C for duration of the assay. The percent mortality was recorded 72 hours after treatment.

Spodoptera eridania = test: Southern armyworm (Spodoptera eridania), 2nd instar larvae, sprayed lima bean plants; settings: for mortality in comparison with untreated controls: 300ppm, 2nd instar larvae, assessed 4 days after treatment
Procedure: B.7. Southern armyworm (Spodoptera eridania), 2nd instar larvae
The active compounds were formulated by a Tecan liquid handler in 100% cyclohexanone as a 10'000 ppm solution supplied in tubes. The 10'000 ppm solution was serially diluted in 100% cyclohexanone to make interim solutions. These served as stock solutions for which final dilutions were made by the Tecan in 50% acetone:50% water (v/v) into 10 or 20ml glass vials. A nonionic surfactant (Kinetic®) was included in the solution at a volume of 0.01% (v/v). The vials were then inserted into an automated electrostatic sprayer equipped with an atomizing nozzle for application to plants/insects. Lima bean plants (variety Sieva) were grown 2 plants to a pot and selected for treatment at the 1st true leaf stage. Test solutions were sprayed onto the foliage by an automated electrostatic plant sprayer equipped with an atomizing spray nozzle. The plants were dried in the sprayer fume hood and then removed from the sprayer. Each pot was placed into perforated plastic bags with a zip closure. Ten to 11 armyworm larvae were placed into the bag and the bags zipped closed. Test plants were maintained in a growth room at about 25°C and about 20-40% relative humidity for 4 days, avoiding direct exposure to fluorescent light (14:10 light:dark photo-period) to prevent trapping of heat inside the bags. Mortality and reduced feeding were assessed 4 days after treatment, compared to untreated control plants.

Myzus persicae = test: Green peach aphid (Myzus persicae), mixed life stages, systemic test via artificial diet under membrane; settings: for mortality in comparison with untreated controls: 2500ppm, aphid mortality visually assessed after 3 days
Procedure: (§1) If not otherwise specified, the test solutions were prepared as follows: The active compound was dissolved at the desired concentration in a mixture of 1:1 (vol:vol) distilled water:acetone. The test solution was prepared at the day of use.
(§2) Test solutions were prepared in general at a concentration of 2500ppm (wt/vol).
B.2. Green peach aphid (Myzus persicae) (mixed life stages)
For evaluating control of Green Peach Aphid through systemic means the test unit consisted of 96-well-microtiter plates containing liquid artificial diet under an artificial membrane. The compounds were formulated using a solution containing 75% v/v water and 25% v/v DMSO. Different concentrations of formulated compounds were pipetted into the aphid diet, using a custom-built pipette, at two replications. After application, 5 - 8 adult aphids were placed on the artificial membrane inside the microtiter plate wells. The aphids were then allowed to suck on the treated aphid diet and incubated at about 23 ± 1°C and about 50 ± 5 % relative humidity for 3 days. Aphid mortality and fecundity was then visually assessed.

Heliothis virescens = test: Tobacco budworm (Heliothis virescens) control, insect diet in 96-well microtiter plates; settings: for mortality in comparison with untreated controls: 2500ppm, egg and larval mortality visually assessed after 5 days
Procedure: as §1, §2
B.3. Tobacco budworm (Heliothis virescens)
For evaluating control of Tobacco Budworm, the test unit consisted of 96-well-microtiter plates containing an insect diet and 15-25 H. virescens eggs. The compounds were formulated using a solution containing 75% v/v water and 25% v/v DMSO. Different concentrations of formulated compounds were sprayed onto the insect diet at 10µl, using a custom-built micro atomizer, at two replications. After application, microtiter plates were incubated at about 28 ± 1°C and about 80 ± 5 % relative humidity for 5 days. Egg and larval mortality was then visually assessed.

Aedes aegypti = test: whole plant or invertebrate; settings: larval mortality visually assessed after 2 days; for mortality in comparison with untreated controls: 2500ppm
Procedure: as §1, §2
B.4. Yellow fever mosquito (Aedes aegypti)
For evaluating control of Yellow Fever Mosquito, the test unit consisted of 96-well-microtiter plates containing 200µl of tap water per well and 5-15 freshly hatched A. aegypti larvae. The active compounds were formulated using a solution containing 75% (v/v) water and 25% (v/v) DMSO. Different concentrations of formulated compounds or mixtures were sprayed onto the insect diet at 2.5µl, using a custom-built micro atomizer, at two replications.
After application, microtiter plates were incubated at 28 ± 1°C, 80 ± 5 % RH for 2 days. Larval mortality was then visually assessed.

Anthonomus grandis = test: Boll weevil (Anthonomus grandis) control, insect diet in 96-well microtiter plates; settings: for mortality in comparison with untreated controls: 2500ppm, egg and larval mortality visually assessed after 5 days
Procedure: as §1, §2
B.1. Boll weevil (Anthonomus grandis)
For evaluating control of boll weevil, the test unit consisted of 96-well-microtiter plates containing an insect diet and 5-10 A. grandis eggs.
The compounds were formulated using a solution containing 75% v/v water and 25% v/v DMSO. Different concentrations of formulated compounds were sprayed onto the insect diet at 5µl, using a custom-built micro atomizer, at two replications.
After application, microtiter plates were incubated at about 25 ± 1°C and about 75 ± 5 % relative humidity for 5 days. Egg and larval mortality were then visually assessed.

Compound	mortality in comparison with untreated controls (Plutella xylostella)	mortality in comparison with untreated controls (Bemisia argentifolii)	mortality in comparison with untreated controls (Dichromothrips corbetti)	mortality in comparison with untreated controls (Spodoptera eridania)	mortality in comparison with untreated controls (Myzus persicae)	mortality in comparison with untreated controls (Heliothis virescens)	mortality in comparison with untreated controls (Aedes aegypti)	mortality in comparison with untreated controls (Anthonomus grandis)	mortality at 2500 ppm (Myzus persicae; Myzus persicae, 72 h, read-out: mortality in comparison with untreated controls) [%]	mortality at 300 ppm (Plutella xylostella; Plutella xylostella, foliar, 72 h, read-out: mortality in comparison with untreated controls) [%]	mortality at 2500 ppm (Heliothis virescens; Heliothis virescens, 120 h, read-out: mortality in comparison with untreated controls) [%]	mortality at 300 ppm (Bemisia argentifolii; Bemisia argentifolii, 72 h, read-out: mortality in comparison with untreated controls) [%]	mortality at 300 ppm (Dichromothrips corbetti; Dichromothrips corbetti, 72 h, read-out: mortality in comparison with untreated controls) [%]	mortality at 2500 ppm (Aedes aegypti; Aedes aegypti, 48 h, read-out: mortality in comparison with untreated controls) [%]	mortality at 2500 ppm (Anthonomus grandis; Anthonomus grandis, 120 h, read-out: mortality in comparison with untreated controls) [%]	mortality at 300 ppm (Spodoptera eridania; Spodoptera eridania, 96 h, read-out: mortality in comparison with untreated controls) [%]
N#Cc1ccc(NC2=NOC(c3ccc(F)c(C(F)(F)F)c3)(C(F)(F)F)C2)cc1-n1cncn1 (stereo not drawn) [I-8]	at least 75%	at least 75%	at least 75%	at least 75%												
CCN(C1=NOC(c2ccc(F)c(Cl)c2)(C(F)(F)F)C1)c1ccc(C#N)c(-n2cncn2)c1 (stereo not drawn) [I-10]	at least 75%		at least 75%	at least 75%	at least 75%	at least 75%	at least 75%	at least 75%								
N#Cc1ccc(N(CC2CC2)C2=NOC(c3ccc(F)c(Cl)c3)(C(F)(F)F)C2)cc1-n1cncn1 (stereo not drawn) [I-11]	at least 75%		at least 75%	at least 75%	at least 75%	at least 75%	at least 75%	at least 75%								
C#CCN(C1=NOC(c2ccc(F)c(Cl)c2)(C(F)(F)F)C1)c1ccc(C#N)c(-n2cncn2)c1 (stereo not drawn) [I-12]	at least 75%		at least 75%	at least 75%	at least 75%	at least 75%	at least 75%	at least 75%								
Fc1c(Cl)cc(C2(C(F)(F)F)CC(Nc3ccc(Cl)c(-n4cncn4)c3)=NO2)cc1Cl (stereo not drawn) [I-13]	at least 75%	at least 75%		at least 75%	at least 75%	at least 75%	at least 75%	at least 75%								
Fc1c(Cl)cc(C2(C(F)(F)F)CC(Nc3ccc(Cl)c(-n4cc(C(F)(F)F)cn4)c3)=NO2)cc1Cl (stereo not drawn) [I-14, N-[4-chloro-3-[4-(trifluoromethyl)pyrazol-1-yl]phenyl]-5-(3,5-dichloro-4-fluoro-phenyl)-5-(trifluoromethyl)-4H-isoxazol-3-amine]									≥ 75	≥ 75	≥ 75	≥ 75	≥ 75	≥ 75	≥ 75	≥ 75
Fc1c(Cl)cc(C2(C(F)(F)F)CC(Nc3ccc(Cl)c(-n4ccc(C(F)(F)F)n4)c3)=NO2)cc1Cl (stereo not drawn) [I-15]		at least 75%	at least 75%	at least 75%		at least 75%	at least 75%									
CCN(C1=NOC(c2cc(Cl)c(F)c(Cl)c2)(C(F)(F)F)C1)c1ccc(Cl)c(-n2cncn2)c1 (stereo not drawn) [I-19]	at least 75%		at least 75%	at least 75%	at least 75%	at least 75%	at least 75%	at least 75%								
COCN(C1=NOC(c2cc(Cl)c(F)c(Cl)c2)(C(F)(F)F)C1)c1ccc(Cl)c(-n2cncn2)c1 (stereo not drawn) [I-21]	at least 75%	at least 75%	at least 75%	at least 75%	at least 75%	at least 75%	at least 75%	at least 75%								
CCOC(=O)N(C1=NOC(c2cc(Cl)c(F)c(Cl)c2)(C(F)(F)F)C1)c1ccc(Cl)c(-n2cncn2)c1 (stereo not drawn) [I-25]	at least 75%	at least 75%	at least 75%	at least 75%		at least 75%	at least 75%									
